The term IC50 denotes the midpoint of a concentration-inhibition curve. Low values mean greater potency, high ones weaker potency.

From ChEMBL document CHEMBL1130705, “Synthesis and antiplatelet effects of an isoxazole series of glycoprotein IIb/IIIa antagonists” (Bioorg Med Chem Lett, 1998) come the findings set out here.

The species named for test [1] is Homo sapiens. The test is described as follows: Compound was tested for inhibition of ADP induced platelet aggregation by using human platelet rich plasma(PRP) assay. In kind it is functional.
The species named for test [2] is Homo sapiens. The test is described as follows: Compound was tested for inhibition of ADP induced platelet aggregation by using human platelet rich plasma (PRP) assay. Format: functional.

In the case of `CCCCOC(=O)N[C@@H](CNC(=O)c1cc(OCc2ccc(C(=N)N)cc2)no1)C(=O)OC`, the IC50 in test [1] was 50 nM.

`CCCCOC(=O)N[C@@H](CNC(=O)c1cc(OCC2CCN(C(=N)N)CC2)no1)C(=O)OC`: half-maximal inhibition in test [2] (IC50) was put at 200 nM. `CCCCOC(=O)N[C@@H](CNC(=O)c1cccc(COc2ccc(C(=N)N)cc2)c1)C(=O)OC` had an IC50 in test [1] of 32 nM. In test [1], `CCCCOC(=O)N[C@@H](CNC(=O)c1cc(OCc2ccc(C(=N)N)cc2)no1)C(=O)O` registered an IC50 of 60 nM.
